Here are results for 52 compounds from PubChem BioAssay AID1996.

Structures are written as SMILES. Values after ≈ are worked out from the molar mass of the structure shown. Bounds are passed on as bounds.

For this data set the following is noted: buffer; pH 7.4; 200.0 µM.
Turning to `COC(=O)C1=C(C)NC(C)=C(C(=O)OC)C1c1ccco1`, the solubility (kinetic) (usually the concentration staying in solution when a stock, usually in DMSO, is diluted into the medium) amounted to 21.9 µg/mL (≈ 75.2 µM).
In turn, `Cc1csc(SCC(=O)Nc2nccs2)n1` displayed a solubility (kinetic) of over 40.7 µg/mL.
Compound `COc1ccc(CNC(=O)COC(=O)/C=C/c2cccc(Cl)c2)cc1` showed a kinetic solubility of 3.3 µg/mL (≈ 9.17 µM).
The compound `Cc1c(Cl)cccc1NC(=S)NC1CCN(C(C)C)CC1` showed a kinetic solubility of over 48.9 µg/mL.
For `CCC1CCCCN1S(=O)(=O)c1ccc([N+](=O)[O-])cc1` (configuration not stated), the solubility (kinetic) is 34.3 µg/mL (≈ 115 µM).
As to `CCc1nnc(NC(=O)CN2CC(C)OC(C)C2)s1` (configuration not stated), the solubility (kinetic) was over 42.7 µg/mL.
Next, `CN(C)CCCNC(=O)c1cc(C(=O)c2ccccc2F)c[nH]1`: over 47.6 µg/mL.
`O=C1CC(N2CCC(c3nc4ccccc4o3)CC2)C(=O)N1` (configuration not stated) returned a kinetic solubility of 43.1 µg/mL (≈ 144 µM).
For `COc1ccc(C(=O)CCC(C)(C)[N+](=O)[O-])cc1OC`, the kinetic solubility was over 42.2 µg/mL.
The compound `O=C(Nc1cccc2cccnc12)c1ccc(Br)cc1Br` displayed a kinetic solubility of under 0.4 µg/mL.
The value for `O=C(CN1CCCCCC1)Nc1ccc([N+](=O)[O-])cc1Cl` was 1.1 µg/mL (≈ 3.53 µM); that for `CCS(=O)(=O)N1CCC(C(=O)Nc2cc(C)ccc2O)CC1` was over 49 µg/mL.
Take `CCCCN1C(=O)C(=O)N(CC(=O)Nc2ccccc2C(=O)OCC)C1=O`: the solubility (kinetic) came to 55.1 µg/mL (≈ 147 µM).
Next, `Nc1cc(C(=O)OCC(=O)NCCCc2ccccc2)ccc1Cl`: 10.5 µg/mL (≈ 30.3 µM); `Cc1ccc(NC(=O)CSc2cccc[n+]2[O-])c([N+](=O)[O-])c1`: over 47.9 µg/mL; `Cc1cc(C(=O)CN2C(=O)NC(CC(C)C)C2=O)c(C)n1C1CC1` (configuration not stated): 22.7 µg/mL (≈ 68.5 µM).
The compound `COCC(=O)Nc1ccc(S(=O)(=O)Nc2nccs2)cc1` yielded a kinetic solubility of 47 µg/mL (≈ 144 µM).
As for `CCOC(CNc1ncnc2c1cnn2C)OCC`, the kinetic solubility was over 39.8 µg/mL.
In turn, `C=CCN1C(=O)C2(OCCCO2)c2ccccc21` showed a solubility (kinetic) of 36.7 µg/mL (≈ 150 µM).
The value for `CCOC(=O)C1CCN(C(=S)NC(=O)c2cccs2)CC1` was over 49 µg/mL; that for `CCOc1ccccc1/C=C(\C(=O)O)c1ccc(S(=O)(=O)N2CCCCC2)s1` was over 63.2 µg/mL.
Turning to `CC(C)(C)c1csc(NC(=O)c2ccc(Br)o2)n1`, the solubility (kinetic) is 16 µg/mL (≈ 48.6 µM).
`O=C(CCCc1ccccc1)Nc1nccs1` yielded a kinetic solubility of 28.5 µg/mL (≈ 116 µM).
Compound `CCCC1(C(=O)OCC)NC(c2ccco2)C2C(=O)N(C)C(=O)C21` (configuration not stated) displayed a kinetic solubility of 46.2 µg/mL (≈ 138 µM).
Regarding `COc1cc2nc(Cl)nc(N3CCCCC3)c2cc1OC`, the solubility (kinetic) worked out at 1.2 µg/mL (≈ 3.9 µM).
On to `Cc1nc(COc2ccccc2Cl)sc1-c1ccnc(N)n1`, for which the solubility (kinetic) worked out at 1.2 µg/mL (≈ 3.61 µM).
Next, `COc1ccc(CNC(=O)COC(=O)c2ccc(C(=O)c3ccccc3)cc2)cc1`: 7.4 µg/mL (≈ 18.3 µM); `CCn1c(NCCO)nc2c(c1=O)C(C)(CC)Cc1ccccc1-2` (configuration not stated): 12.8 µg/mL (≈ 39.1 µM); `N#C/C(=C(O)\C=C\c1ccccc1)c1nc2ccccc2[nH]1`: under 0.2 µg/mL.
Regarding `C=CCOC(=O)c1cn(CC)c2nc(C)ccc2c1=O`, the kinetic solubility was over 40.8 µg/mL.
Next, `Cc1cc(C(=O)Nc2sccc2C(N)=O)c(C)o1`: 27.1 µg/mL (≈ 103 µM); `COc1ccc(NC(=O)c2ccc[n+]([O-])c2)cc1`: over 36.6 µg/mL; `CC(C)N1C(=O)CCC1C(=O)NCc1cccs1` (configuration not stated): over 40 µg/mL.
Next, `COc1ccc(Cl)cc1NC(=O)CN(C)C(=O)/C=C/c1ccco1`: over 52.3 µg/mL; `NS(=O)(=O)c1ccc(NC(=O)CN2C(=O)c3ccccc3C2=O)cc1`: over 53.9 µg/mL; `COc1cccc(NC(=O)Nc2nc(SC(C)(C)C)ns2)c1`: 1.1 µg/mL (≈ 3.25 µM).
On to `Cc1ccc(N2C(=O)c3ccccc3C(C)(C)C2=O)cc1`, for which the solubility (kinetic) came out at 12.8 µg/mL (≈ 45.8 µM).
In turn, `Cc1cccc(COC(=O)C(Cc2ccccc2)NC(N)=O)c1` (configuration not stated) showed a kinetic solubility of over 46.9 µg/mL.
`Cc1ccc(S(=O)(=O)N2CCC[C@H]2C(=O)OCc2cc(=O)oc3cc(C)ccc23)cc1`: the kinetic solubility was determined as 7.3 µg/mL (≈ 16.5 µM).
In turn, `CCOc1cccc2cc(C(=O)NCc3ccc(F)cc3)c(=N)oc12` yielded a kinetic solubility of 0.7 µg/mL (≈ 2.06 µM).
For `Cc1cc(C)cc(NC(=O)N2C3CCCC2CC(NC(=O)C2CC2)C3)c1` (configuration not stated), the solubility (kinetic) came to 1.6 µg/mL (≈ 4.5 µM).
For the compound `CC(C)C(=O)NCc1cc(-c2ccc(Cl)cc2)no1`, the solubility (kinetic) was 3 µg/mL (≈ 10.8 µM).
Next, `Cc1nc(Nc2ccc(Cl)cc2)c2oc3ccccc3c2n1`: under 0.2 µg/mL; `Cc1nc(N2CCN(C)CC2)c2c3c(sc2n1)CCCC3`: 41.4 µg/mL (≈ 137 µM); `O=C(Cc1ccccc1)NCC(=O)N1CCC1`: over 34.8 µg/mL.
Compound `CCC(=O)c1cn(CC(=O)Nc2cccc(C)c2C)c2ccccc12` had a solubility (kinetic) of under 0.4 µg/mL.
In the case of `CCCn1c2ccccc2c2cnn(CC(=O)N(CC)CC)c(=O)c21`, the solubility (kinetic) was over 51.1 µg/mL.
The compound `CNC(=O)N1c2ccccc2CCc2ccccc21` had a kinetic solubility of over 37.8 µg/mL.
Take `Nc1nc(Nc2cccc(F)c2)nc(N2CCOCC2)c1[N+](=O)[O-]`: the solubility (kinetic) was found to be 2.9 µg/mL (≈ 8.67 µM).
On to `Cc1ccc(C(=O)NCCCNC(=O)c2ccccn2)cc1`, for which the solubility (kinetic) was over 44.6 µg/mL.
The value for `Nc1ncnc2c1nc(Br)n2[C@@H]1O[C@@H]2COP(=O)([O-])O[C@H]2[C@H]1O.[Na+]` was over 64.5 µg/mL; that for `Cc1ccc(C)c(C(=O)CN2C(=O)c3ccccc3C2=O)c1` was 0.9 µg/mL (≈ 3.07 µM).
